Data set [1] addresses 5-hydroxytryptamine receptor 7 (Homo sapiens, UniProt P34969). As to the kind of experiment: Binding affinity to 5-HT7 receptor (unknown origin).
Data set [2] deals with T1, 5-hydroxytryptamine receptor 2C (Homo sapiens, UniProt P28335).
T1 sequence (P28335 whole entry): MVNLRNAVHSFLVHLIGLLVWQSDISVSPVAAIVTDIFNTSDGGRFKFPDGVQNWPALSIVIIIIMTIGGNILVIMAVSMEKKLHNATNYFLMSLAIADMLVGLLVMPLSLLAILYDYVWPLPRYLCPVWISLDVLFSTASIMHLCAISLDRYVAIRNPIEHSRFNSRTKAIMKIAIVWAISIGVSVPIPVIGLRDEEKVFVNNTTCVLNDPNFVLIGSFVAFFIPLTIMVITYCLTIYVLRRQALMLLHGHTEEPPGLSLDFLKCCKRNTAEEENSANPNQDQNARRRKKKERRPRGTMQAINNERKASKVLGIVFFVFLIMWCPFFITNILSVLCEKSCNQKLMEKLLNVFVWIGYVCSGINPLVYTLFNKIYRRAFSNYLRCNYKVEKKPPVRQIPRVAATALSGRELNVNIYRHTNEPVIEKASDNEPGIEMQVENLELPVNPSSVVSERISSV
As to the kind of experiment: Binding affinity to 5-HT2c receptor (unknown origin).

Data set [3] addresses 5-hydroxytryptamine receptor 2A (Homo sapiens, UniProt P28223). The data set can be described thus: Binding affinity to 5-HT2A receptor (unknown origin).
Data set [4] can be described thus: Intrinsic clearance in human liver microsomes. The data set is classed as ADME, microsome. Particulars: read-out: CLH.
The target in data set [5] is T2, 5-hydroxytryptamine receptor 1A (Rattus norvegicus, UniProt P19327).
T2 sequence (P19327 whole entry): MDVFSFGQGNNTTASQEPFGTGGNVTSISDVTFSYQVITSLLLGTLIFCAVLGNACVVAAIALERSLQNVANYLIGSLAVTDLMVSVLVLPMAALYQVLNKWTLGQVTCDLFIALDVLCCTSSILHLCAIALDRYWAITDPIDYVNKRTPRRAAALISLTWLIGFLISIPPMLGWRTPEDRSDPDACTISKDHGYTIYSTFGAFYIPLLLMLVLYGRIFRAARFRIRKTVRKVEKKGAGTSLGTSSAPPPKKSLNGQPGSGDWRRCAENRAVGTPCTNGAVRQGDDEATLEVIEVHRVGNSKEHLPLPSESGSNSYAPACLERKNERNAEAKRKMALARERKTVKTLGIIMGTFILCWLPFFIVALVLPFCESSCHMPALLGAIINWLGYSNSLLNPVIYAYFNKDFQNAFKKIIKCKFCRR
As to the kind of experiment: Displacement of [3H]-8-OH-DPAT from 5-HT1A in rat hippocampal membranes incubated for 20 mins by radioligand binding assay. The data set is classed as cell membranes.

The target of data set [6] is T3, 5-hydroxytryptamine receptor 7 (Rattus norvegicus, UniProt P32305). The data set can be described thus: Displacement of [3H]lysergide from rat recombinant 5-HT7 receptor expressed in HEK293 cell membranes incubated for 60 mins by radioligand binding assay.
Data set [7] deals with T3, 5-hydroxytryptamine receptor 7. As to the kind of experiment: Displacement of [3H]5-CT from rat 5-HT7 receptor expressed in HEK293 cell membranes by radioligand binding assay.
A short description of data set [8]: Ratio of drug level in brain to plasma in mouse at 5 mg/kg, ip. The data set is classed as ADME, organism-based. The conditions noted are these: read-out: BPR.
Data set [9] deals with T3, 5-hydroxytryptamine receptor 7. As to the kind of experiment: Displacement of [3H]-5-CT from 5-HT7 receptor in rat hypothalamus membranes by Cheng-Prusoff equation analysis. The data set is classed as cell membranes, Membrane.

T3 sequence (P32305 whole entry): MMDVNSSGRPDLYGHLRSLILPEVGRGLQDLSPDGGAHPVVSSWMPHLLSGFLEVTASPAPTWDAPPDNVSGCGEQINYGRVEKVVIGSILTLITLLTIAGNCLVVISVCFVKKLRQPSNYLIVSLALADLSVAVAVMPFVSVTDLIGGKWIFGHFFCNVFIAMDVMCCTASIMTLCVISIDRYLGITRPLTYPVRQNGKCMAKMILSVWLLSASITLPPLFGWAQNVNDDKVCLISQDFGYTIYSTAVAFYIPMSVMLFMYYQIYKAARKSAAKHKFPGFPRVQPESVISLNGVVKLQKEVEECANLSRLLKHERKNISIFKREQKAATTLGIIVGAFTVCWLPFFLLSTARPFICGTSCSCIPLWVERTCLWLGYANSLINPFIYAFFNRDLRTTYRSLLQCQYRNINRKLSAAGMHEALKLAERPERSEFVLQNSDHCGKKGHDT
5-hydroxytryptamine receptor 7 (Homo sapiens, UniProt P34969), sequence (P34969 whole entry): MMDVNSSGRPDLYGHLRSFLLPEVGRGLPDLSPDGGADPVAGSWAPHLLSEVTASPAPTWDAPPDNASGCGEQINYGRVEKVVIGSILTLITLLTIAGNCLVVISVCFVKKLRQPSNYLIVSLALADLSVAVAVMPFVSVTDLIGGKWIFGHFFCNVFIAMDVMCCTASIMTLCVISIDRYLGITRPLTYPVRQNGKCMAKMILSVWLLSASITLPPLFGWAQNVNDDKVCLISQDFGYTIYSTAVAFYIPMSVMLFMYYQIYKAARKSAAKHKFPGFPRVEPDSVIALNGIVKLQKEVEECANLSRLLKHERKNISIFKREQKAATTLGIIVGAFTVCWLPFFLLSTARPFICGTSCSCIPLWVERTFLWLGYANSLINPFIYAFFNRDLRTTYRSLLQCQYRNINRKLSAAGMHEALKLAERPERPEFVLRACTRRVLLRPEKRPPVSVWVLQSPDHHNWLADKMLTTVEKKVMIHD
5-hydroxytryptamine receptor 2A, sequence (P28223 whole entry): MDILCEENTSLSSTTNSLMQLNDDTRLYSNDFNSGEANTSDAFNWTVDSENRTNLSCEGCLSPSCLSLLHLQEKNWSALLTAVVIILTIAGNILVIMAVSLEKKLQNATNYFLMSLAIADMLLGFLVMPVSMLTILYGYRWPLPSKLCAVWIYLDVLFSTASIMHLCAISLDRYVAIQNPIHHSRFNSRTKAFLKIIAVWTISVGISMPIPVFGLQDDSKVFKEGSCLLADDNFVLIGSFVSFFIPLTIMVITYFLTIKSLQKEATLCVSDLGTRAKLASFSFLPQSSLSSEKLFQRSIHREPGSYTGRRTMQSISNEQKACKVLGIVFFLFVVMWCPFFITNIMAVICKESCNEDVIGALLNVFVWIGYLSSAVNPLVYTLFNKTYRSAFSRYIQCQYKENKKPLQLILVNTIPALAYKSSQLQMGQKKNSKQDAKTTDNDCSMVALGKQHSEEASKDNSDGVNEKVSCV

`Cc1nn(C)c(C)c1-c1cccc(CCN(C)C)c1`: in data set [1], the Ki turned out to be 2.5 nM.

For the compound `Cc1ccc2c(c1)c1c(n2CCc2ccccc2)CCN(C)C1` [MARITUPIRDINE], the Ki in [2] and in data set [3] was 1.2 to 2 nM throughout.

For the compound `CNC(=O)CN1c2ccccc2C2CCN(CCCCC34CCCc5cccc(c53)NC4=O)CC21` (centres undefined), the Ki in data set [1] was determined as 4 nM.

With `CCn1cncc1-c1c[nH]c2ccc(I)cc12`, the CLint scaled in data set [4] came out at 0.378 L/h/kg.

For `Cc1nn(C)c(C)c1-c1ccc(O)c(CCN(C)C)c1`, the Ki in data set [1] turned out to be 0.47 nM.

For the compound `COc1cccc(CCN2CCN(c3ccccc3-c3ccccc3)CC2)c1`, the values for the Ki in [5] and in [6] were 20 nM and 7.5 nM, respectively.

`Clc1ccc(-c2nn(Cc3ccccc3)c3c2CCNCC3)cc1` [JNJ-18038683 FREE BASE] had a Ki in data set [7] of 6.5 nM.

As to `CCn1cncc1-c1c[nH]c2ccc(OC)cc12`, the CLint scaled in data set [4] stood at 0.221 L/h/kg. For the same compound, the Kp in [8] stood at 6.34.

The compound `O=C1c2cccc3cccc(c23)N1CCCCCN1CCN(c2ccccc2)CC1` [UCM-5600] registered a Ki in data set [9] of 89 nM.

As for `COc1cccc(CCN2CCN(c3ccccc3OC)CC2)c1`, the results for the Ki in data set [5] and in [6] were 2.37 nM and 24.5 nM, respectively.
